Patent publication US12595258B2, “Heterocyclic derivatives, pharmaceutical compositions and their use in the treatment or amelioration of cancer” (TOLREMO THERAPEUTICS AG, priority 2022, dated 2026)

Key:
CBP bromodomain = biological target: T1, CBP bromodomain (Homo sapiens, UniProt Q92793); experiment: CBP bromodomain binding assay (TR-FRET); details: TR-FRET (Cayman kit 600850), 1 hour incubation at room temperature; read-out: Assay 2
T1 construct: purchased Cayman chemicals 600850
Protocol: CBP Bromodomain Binding Assay (TR-FRET)
Compounds solutions of 10 mM in DMSO were pre-diluted in DSMO to 25× stock solutions in DMSO. These were then diluted down to 4× in assay buffer. A dilution series in assay buffer was performed keeping the DMSO concentration stable. 5 μl compound in assay buffer was transferred into the assay plate (provided by assay kit) and the TR-FRET assay Cayman chemicals; 600850) was performed using the provider's instructions. After 1 hour incubation at room temperature in the darks, assay plates were read in a Tecan M1000 plate reader or a Tecan Sparks reader using the TR-FRET mode (top read; excitation 340 nm bandwidth 20 nM; emission 620 nm bandwidth 7 nM; gain optimal determined for the first well, number of flashes: 5; flash frequency 100 Hz; integration time: 500 μs, lag time: 100 μs, room temperature). The TR-FRET ratio was calculated by dividing 670 nm emission by 620 nm emission. Values were log transformed and non-linear regression with variable slope (4 parameters) was used to fit values to a dose-response curve to evaluate EC50 values.

[1] = test system: multiple myeloma cell line OPM-2; experiment: Multiple myeloma cellular efficacy (PrestoBlue cell proliferation/survival assay); type: cell-based; details: Homo sapiens, 96 h; OPM-2 cells, 4 days treatment, PrestoBlue signal relative to vehicle; read-out: Assay 1
Protocol: Multiple Myeloma Cellular Efficacy:
10000 OPM-2 (ACC50; DSMZ) were plated into wells of a 384 well plate (Greiner 781090). Cells were treated for 4 days with a dose range of compound or vehicle. At the end of the experiment cells were stained directly with PrestoBlue (ThermoFisher Scientific; A13262) for 2 hours at 37° C. in a humidified incubator according to manufactor's instruction. To assess the relative cell number the PrestoBlue signal was measured using either a TecanM1000Pro reader or a Tecan Sparks reader following the manufactor's instructions. Background (no cells) values were subtracted and set in relation to the vehicle control. To assess the EC50 of each compound the relative fluorescence value was plotted against the compound concentration after log transformation. Data were fitted in a nonlinear manner with a variable slope (four parameters) using graphpad prism software. Cellular efficacy of compounds was evaluated in the multiple myeloma cell line OPM-2 using the cell proliferation/survival assay PrestoBlue. EC50 values are classified as indicated below.

T1 sequence (Q92793 1085-1192 limits assumed): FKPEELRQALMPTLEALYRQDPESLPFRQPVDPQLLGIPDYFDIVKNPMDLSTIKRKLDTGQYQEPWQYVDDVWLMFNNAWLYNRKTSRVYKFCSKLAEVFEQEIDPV

EC50 (CBP bromodomain)	Structure (SMILES)	EC50 [1]
3 nM	CC(=O)N1C[C@H](c2nc(Nc3cc(F)cc(-c4nnc(C)o4)c3)cc(-c3cnccn3)n2)CC[C@@H]1C [Compound 006, 1-((2S,5R)-5-(4-((3-fluoro-5-(5-methyl-1,3,4-oxadiazol-2-yl)phenyl)amino)-6-(pyrazin-2-yl)pyrimidin-2-yl)-2-methylpiperidin-1-yl)ethan-1-one]	6 nM
–	CC(=O)N1C[C@H](c2nc(Nc3cc(F)cc(-c4cn(C5COC5)nn4)c3)cc(-c3cnccn3)n2)CC[C@@H]1C [Compound 022, 1-((2S,5R)-5-(4-((3-fluoro-5-(1-(oxetan-3-yl)-1H-1,2,3-triazol-4-yl)phenyl)amino)-6-(pyrazin-2-yl)pyrimidin-2-yl)-2-methylpiperidin-1-yl)ethan-1-one]	13 nM
–	CC(=O)N1C[C@H](c2nc(Nc3cc(F)cc(-c4c[nH]nn4)c3)cc(-c3cnccn3)n2)CC[C@@H]1C [Compound 009, 1-((2S,5R)-5-(4-((3-fluoro-5-(1H-1,2,3-triazol-4-yl)phenyl)amino)-6-(pyrazin-2-yl)pyrimidin-2-yl)-2-methylpiperidin-1-yl)ethan-1-one]	37 nM
–	CC(=O)N1C[C@H](c2nc(Nc3cccc(-c4cnnn4C)c3)cc(-c3cnccn3)n2)CC[C@@H]1C [Compound 017, 1-((2S,5R)-2-methyl-5-(4-((3-(1-methyl-1H-1,2,3-triazol-5-yl)phenyl)amino)-6-(pyrazin-2-yl)pyrimidin-2-yl)piperidin-1-yl)ethan-1-one]	458 nM
–	CC(=O)N1C[C@H](c2nc(Nc3cccc(-c4cn(C5COC5)nn4)c3)cc(-c3cnccn3)n2)CC[C@@H]1C [Compound 008]	28 nM
–	CC(=O)N1C[C@H](c2nc(Nc3cccc(-c4cnn(C)c4C)c3)cc(-c3cnccn3)n2)CC[C@@H]1C [Compound 005]	193 nM
65 nM	CC(=O)N1C[C@H](c2nc(Nc3cccc(-c4cn(C5COC5)nn4)c3F)cc(-c3cnccn3)n2)CC[C@@H]1C [Compound 023]	7 nM
–	CC(=O)N1C[C@H](c2nc(Nc3cccc(-c4nnn(C)c4C)c3)cc(-c3cnccn3)n2)CC[C@@H]1C [Compound 015, 1-((2S,5R)-5-(4-((3-(1,5-dimethyl-1H-1,2,3-triazol-4-yl)phenyl)amino)-6-(pyrazin-2-yl)pyrimidin-2-yl)-2-methylpiperidin-1-yl)ethan-1-one]	109 nM
–	CC(=O)N1C[C@H](c2nc(Nc3cc(Cl)cc(-c4cn(C)nn4)c3)cc(-c3cnccn3)n2)CC[C@@H]1C [Compound 021, 1-((2S,5R)-5-(4-((3-chloro-5-(1-methyl-1H-1,2,3-triazol-4-yl)phenyl)amino)-6-(pyrazin-2-yl)pyrimidin-2-yl)-2-methylpiperidin-1-yl)ethan-1-one]	5 nM
–	CC(=O)N1C[C@H](c2nc(Nc3cc(Cl)cc(-c4c[nH]nn4)c3)cc(-c3cnccn3)n2)CC[C@@H]1C [Compound 010, 1-((2S,5R)-5-(4-((3-chloro-5-(1H-1,2,3-triazol-4-yl)phenyl)amino)-6-(pyrazin-2-yl)pyrimidin-2-yl)-2-methylpiperidin-1-yl)ethan-1-one]	45 nM
7 nM	CC(=O)N1C[C@H](c2nc(Nc3cc(F)cc(-c4cn(C)cn4)c3)cc(-c3cnccn3)n2)CC[C@@H]1C [Compound 001, 1-((2S,5R)-5-(4-((3-fluoro-5-(1-methyl-1H-imidazol-4-yl)phenyl)amino)-6-(pyrazin-2-yl)pyrimidin-2-yl)-2-methylpiperidin-1-yl)ethan-1-one]	1 nM
–	CCn1cc(-c2cccc(Nc3cc(-c4cnccn4)nc([C@@H]4CC[C@H](C)N(C(C)=O)C4)n3)c2)nn1 [Compound 011, 1-((2S,5R)-5-(4-((3-(1-ethyl-1H-1,2,3-triazol-4-yl)phenyl)amino)-6-(pyrazin-2-yl)pyrimidin-2-yl)-2-methylpiperidin-1-yl)ethan-1-one]	6 nM
–	CC(=O)N1C[C@H](c2nc(Nc3cccc(-c4cn(C(C)C)nn4)c3)cc(-c3cnccn3)n2)CC[C@@H]1C [Compound 007, 1-((2S,5R)-5-(4-((3-(1-isopropyl-1H-1,2,3-triazol-4-yl)phenyl)amino)-6-(pyrazin-2-yl)pyrimidin-2-yl)-2-methylpiperidin-1-yl)ethan-1-one]	50 nM
–	CC(=O)N1C[C@H](c2nc(Nc3cccc(-c4cn(C)nn4)c3C)cc(-c3cnccn3)n2)CC[C@@H]1C [Compound 013]	32 nM
128 nM	CC(=O)N1C[C@H](c2nc(Nc3cccc(-c4cn(C)nc4C)c3)cc(-c3cnccn3)n2)CC[C@@H]1C [Compound 004]	–
6 nM	CC(=O)N1C[C@H](c2nc(Nc3cccc(-c4cn(C)nn4)c3F)cc(-c3cnccn3)n2)CC[C@@H]1C [Compound 019, 1-((2S,5R)-5-(4-((2-fluoro-3-(1-methyl-1H-1,2,3-triazol-4-yl)phenyl)amino)-6-(pyrazin-2-yl)pyrimidin-2-yl)-2-methylpiperidin-1-yl)ethan-1-one]	1 nM
22 nM	CC(=O)N1C[C@H](c2nc(Nc3ccc(F)c(-c4cn(C)nn4)c3)cc(-c3cnccn3)n2)CC[C@@H]1C [Compound 018, 1-((2S,5R)-5-(4-((4-fluoro-3-(1-methyl-1H-1,2,3-triazol-4-yl)phenyl)amino)-6-(pyrazin-2-yl)pyrimidin-2-yl)-2-methylpiperidin-1-yl)ethan-1-one]	63 nM
–	CC(=O)N1C[C@H](c2nc(Nc3ccc(C)c(-c4cn(C)nn4)c3)cc(-c3cnccn3)n2)CC[C@@H]1C [Compound 012, 1-((2S,5R)-2-methyl-5-(4-((4-methyl-3-(1-methyl-1H-1,2,3-triazol-4-yl)phenyl)amino)-6-(pyrazin-2-yl)pyrimidin-2-yl)piperidin-1-yl)ethan-1-one]	261 nM
–	CC(=O)N1C[C@H](c2nc(Nc3cccc(-c4nn(C)nc4C)c3)cc(-c3cnccn3)n2)CC[C@@H]1C [Compound 016, 1-((2S,5R)-5-(4-((3-(2,5-dimethyl-2H-1,2,3-triazol-4-yl)phenyl)amino)-6-(pyrazin-2-yl)pyrimidin-2-yl)-2-methylpiperidin-1-yl)ethan-1-one]	142 nM
–	CC(=O)N1C[C@H](c2nc(Nc3cc(-c4cn(C)nn4)ccc3F)cc(-c3cnccn3)n2)CC[C@@H]1C [Compound 020]	864 nM

Structure (SMILES)	EC50 (CBP bromodomain)	EC50 [1]
CC(=O)N1C[C@H](c2nc(Nc3cc(C)cc(-c4cn(C)nn4)c3)cc(-c3cnccn3)n2)CC[C@@H]1C [Compound 014, 1-((2S,5R)-2-methyl-5-(4-((3-methyl-5-(1-methyl-1H-1,2,3-triazol-4-yl)phenyl)amino)-6-(pyrazin-2-yl)pyrimidin-2-yl)piperidin-1-yl)ethan-1-one]	7 nM	5 nM
CC(=O)N1C[C@H](c2nc(Nc3cc(F)cc(-c4cn[nH]c4)c3)cc(-c3cnccn3)n2)CC[C@@H]1C [Compound 002, 1-((2S,5R)-5-(4-((3-fluoro-5-(1H-pyrazol-4-yl)phenyl)amino)-6-(pyrazin-2-yl)pyrimidin-2-yl)-2-methylpiperidin-1-yl)ethan-1-one]	23 nM	25 nM
